Test results taken from ChEMBL document CHEMBL1134401, “Property-based design: optimization of drug absorption and pharmacokinetics” (J Med Chem, 2001).

Tests used:
[1] = Half life was measured as time taken to decrease half of its initial concentration
[2] = Volume of distribution of the compound; conditions: in vivo
[3] = Plasma clearance of the compound
[4] = Partition coefficient (logD); conditions: octanol/water

Row | half-life [1] [h] | Vd [2] [L/kg] | clearance [3] [mL/min/kg] | logD [4] | SMILES
1 | 0.33 | 1.2 | 80 | – | CO[C@H]1/C=C/O[C@@]2(C)Oc3c(C)c(O)c4c(O)c(cc(O)c4c3C2=O)NC(=O)/C(C)=C\C=C\[C@H](C)[C@H](O)[C@@H](C)[C@@H](O)[C@@H](C)[C@H](OC(C)=O)[C@@H]1C [RIFAMYCIN]
2 | 4 | 3.8 | 21 | 4.2 | CCOC(=O)C1=C(C)NC(C)=C(C(=O)OC)C1c1cccc([N+](=O)[O-])c1 (stereo unspecified) [NITRENDIPINE]
3 | 45 | 266 | 80 | – | CO[C@H]1/C=C/O[C@@]2(C)Oc3c(C)c(O)c4c(c3C2=O)C2=NC3(CCN(CC(C)C)CC3)NC2=C(NC(=O)/C(C)=C\C=C\[C@H](C)[C@H](O)[C@@H](C)[C@@H](O)[C@@H](C)[C@H](OC(C)=O)[C@@H]1C)C4=O [RIFABUTIN]
4 | – | 8.8 | 32 | – | CO[C@H]1/C=C/O[C@@]2(C)Oc3c(C)c(O)c4c(O)c(c(/C=N/N5CCN(C)CC5)c(O)c4c3C2=O)NC(=O)/C(C)=C\C=C\[C@H](C)[C@H](O)[C@@H](C)[C@@H](O)[C@@H](C)[C@H](OC(C)=O)[C@@H]1C [RIFAMPIN]

Further lines, the molecule ahead of its results:

Row | SMILES | half-life [1] [h] | Vd [2] [L/kg] | clearance [3] [mL/min/kg] | logD [4]
5 | CCOC(=O)C1=C(C)NC(C)=C(C(=O)OC)C1c1cccc(Cl)c1Cl (stereo unspecified) [FELODIPINE] | – | – | – | 4.8
6 | COC(=O)C1=C(C)NC(C)=C(C(=O)OC)C1c1ccccc1[N+](=O)[O-] [NIFEDIPINE] | 1.9 | 1 | – | –
7 | CCOC(=O)C1=C(COCCN)NC(C)=C(C(=O)OC)C1c1ccccc1Cl (stereo unspecified) [AMLODIPINE] | – | – | – | 1.8
